From ChEMBL document CHEMBL1201862, “PubChem BioAssay data set” (2004)
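Compound exposure: 48 hours, 5 concentrations, 96-well plates. Abbreviation: GI50, concentration required for 50% inhibition of growth.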 Calls of active or inactive are those of the source. No stated cut-off is given here; in the data, active = GI50 up to about 1.1 µM and inactive = higher.

Experiments:
Experiment in all cases: DTP human tumour cell line panel, 48 h
KM12 = tested on: KM12
OVCAR-5 = tested on: OVCAR-5
RXF 393 = tested on: RXF 393
HL-60 = tested on: HL-60
A549 = tested on: A549
HOP-62 = tested on: HOP-62
NCI-H226 = tested on: NCI-H226
SNB-19 = tested on: SNB-19
IGROV-1 = tested on: IGROV-1
NCI/ADR-RES = tested on: NCI/ADR-RES
MCF7 = tested on: MCF7
SNB-75 = tested on: SNB-75
UACC-62 = tested on: UACC-62
SF-268 = tested on: SF-268
SN12C = tested on: SN12C
PC-3 = tested on: PC-3
SK-MEL-2 = tested on: SK-MEL-2
MDA-N = tested on: MDA-N
BT-549 = tested on: BT-549

Measured: GI50

CN1c2ccccc2C(=O)NC12CCN(CC1COc3ccccc3O1)CC2 (stereo not given)
inactive: KM12 32.6 µM | OVCAR-5 48.6 µM | RXF 393 > 100 µM | HL-60 25.4 µM | A549 50.6 µM | HOP-62 49.8 µM | NCI-H226 19.2 µM | SNB-19 31.3 µM | IGROV-1 45.1 µM | NCI/ADR-RES 31.6 µM | MCF7 31.8 µM | SNB-75 > 100 µM | UACC-62 29.7 µM | SF-268 > 100 µM

O=C1CCC2CCC1C2 (stereo not given)
inactive: KM12 > 100 µM | SN12C > 100 µM | OVCAR-5 > 100 µM | RXF 393 96.4 µM | HL-60 > 100 µM | A549 > 100 µM | HOP-62 > 100 µM | NCI-H226 > 100 µM | SNB-19 > 100 µM | PC-3 > 100 µM | NCI/ADR-RES > 100 µM | MCF7 > 100 µM | SNB-75 > 100 µM | SK-MEL-2 > 100 µM | UACC-62 > 100 µM | SF-268 > 100 µM | MDA-N > 100 µM

CN(N=O)C(=O)Nc1c[nH]c(=O)[nH]c1=O
inactive: KM12 > 100 µM | SN12C > 100 µM | OVCAR-5 > 100 µM | HL-60 > 100 µM | A549 > 100 µM | HOP-62 > 100 µM | NCI-H226 > 100 µM | SNB-19 > 100 µM | PC-3 > 100 µM | IGROV-1 > 100 µM | NCI/ADR-RES > 100 µM | MCF7 > 100 µM | SNB-75 > 100 µM | SK-MEL-2 > 100 µM | UACC-62 > 100 µM | MDA-N > 100 µM

OC1(c2ccccc2)C2CCN(CC2)C1CN1CCOCC1 (stereo not given)
inactive: KM12 > 100 µM | SN12C > 100 µM | OVCAR-5 > 100 µM | RXF 393 > 100 µM | HL-60 > 100 µM | A549 > 100 µM | HOP-62 > 100 µM | NCI-H226 > 100 µM | SNB-19 > 100 µM | PC-3 > 100 µM | IGROV-1 > 100 µM | NCI/ADR-RES > 100 µM | MCF7 > 100 µM | SNB-75 > 100 µM | SK-MEL-2 > 100 µM | UACC-62 > 100 µM | SF-268 > 100 µM

CN1C(=O)C(CCO)(C(C)(C)C)c2ccccc21 (stereo not given)
inactive: KM12 > 100 µM | SN12C > 100 µM | OVCAR-5 > 100 µM | RXF 393 > 100 µM | HL-60 > 100 µM | A549 > 100 µM | HOP-62 > 100 µM | NCI-H226 97.9 µM | SNB-19 > 100 µM | PC-3 > 100 µM | NCI/ADR-RES > 100 µM | MCF7 > 100 µM | SNB-75 68.1 µM | SK-MEL-2 > 100 µM | UACC-62 > 100 µM | SF-268 > 100 µM | MDA-N > 100 µM

O=C(/C=C/c1cccs1)c1ccc(Cl)s1
inactive: KM12 21.8 µM | SN12C 18.6 µM | OVCAR-5 54.3 µM | HL-60 22.1 µM | A549 42.9 µM | HOP-62 > 100 µM | NCI-H226 28.7 µM | SNB-19 15.7 µM | PC-3 40.6 µM | IGROV-1 > 10 µM | NCI/ADR-RES > 100 µM | MCF7 17.2 µM | SNB-75 56 µM | SK-MEL-2 > 100 µM | UACC-62 45 µM | SF-268 38.7 µM | MDA-N > 10 µM

COc1c(C(=O)/C(=N/Nc2ccc(C(=O)O)cc2)C(C)=O)c(O)cc2occc12
inactive: KM12 55 µM | SN12C > 100 µM | OVCAR-5 > 100 µM | RXF 393 51.2 µM | HL-60 42.8 µM | A549 > 100 µM | HOP-62 > 100 µM | NCI-H226 > 100 µM | SNB-19 > 100 µM | PC-3 > 100 µM | IGROV-1 > 100 µM | NCI/ADR-RES > 100 µM | MCF7 > 100 µM | SNB-75 50.7 µM | SK-MEL-2 > 100 µM | UACC-62 > 100 µM | SF-268 > 100 µM | MDA-N 35.7 µM

CSC1=C(C(=O)Nc2ccc(Cl)cc2)C(N)=NC1=O
inactive: KM12 > 100 µM | SN12C > 100 µM | OVCAR-5 > 100 µM | RXF 393 > 100 µM | HL-60 > 100 µM | BT-549 > 100 µM | A549 > 100 µM | NCI-H226 > 100 µM | SNB-19 > 100 µM | PC-3 > 100 µM | IGROV-1 19.7 µM | NCI/ADR-RES > 100 µM | MCF7 > 100 µM | SNB-75 > 100 µM | SK-MEL-2 > 100 µM | UACC-62 > 100 µM | SF-268 > 100 µM

CCCCCCCCCC/C=C/CC(=O)SCCNC(=O)CCNC(=O)[C@@H](O)C(C)(C)COP(=O)(O)OP(=O)(O)OCC1OC(n2cnc3c(N)ncnc32)C(O)C1OP(=O)(O)O (stereo not given in full)
inactive: KM12 > 10 µM | SN12C > 10 µM | OVCAR-5 > 10 µM | RXF 393 > 10 µM | HL-60 > 10 µM | A549 > 10 µM | HOP-62 > 10 µM | NCI-H226 > 10 µM | SNB-19 > 10 µM | PC-3 > 10 µM | IGROV-1 > 10 µM | NCI/ADR-RES > 10 µM | MCF7 > 10 µM | SNB-75 > 10 µM | UACC-62 > 10 µM | SF-268 > 10 µM | MDA-N > 10 µM

CC(C)=C1C(=O)C[C@]2(C)C/C=C(\C)CC/C=C(\C)CC[C@@H]12
inactive: KM12 8.67 µM | SN12C 9.42 µM | OVCAR-5 12.1 µM | RXF 393 7.29 µM | BT-549 10.9 µM | A549 14.1 µM | HOP-62 9.08 µM | NCI-H226 8.69 µM | SNB-19 > 50 µM | PC-3 11.8 µM | IGROV-1 9.4 µM | NCI/ADR-RES 7.36 µM | MCF7 11.5 µM | SNB-75 9.66 µM | SK-MEL-2 7.85 µM | UACC-62 7.74 µM | SF-268 8.93 µM

Cc1cccc2c1C(=O)OC2(C)c1cccc2ccccc12 (stereo not given)
inactive: KM12 27.6 µM | SN12C 21.2 µM | OVCAR-5 > 100 µM | RXF 393 22.6 µM | HL-60 16.4 µM | A549 35.2 µM | NCI-H226 26.5 µM | SNB-19 78.5 µM | SNB-75 9.71 µM | SK-MEL-2 23.8 µM | SF-268 28.4 µM

COc1ccc(C=O)c([N+](=O)[O-])c1
inactive: KM12 22.8 µM | SN12C 41.7 µM | RXF 393 > 100 µM | HL-60 4.2 µM | A549 > 100 µM | HOP-62 40.7 µM | NCI-H226 44 µM | SNB-19 64.6 µM | IGROV-1 98.6 µM | SNB-75 52.1 µM | SK-MEL-2 35.2 µM | UACC-62 52.6 µM | SF-268 > 100 µM

O=c1[nH]c(=O)n(C2CC(O)C(CO)O2)cc1/N=N/NCCCc1ccccc1 (stereo not given)
inactive: KM12 > 100 µM | SN12C > 100 µM | OVCAR-5 > 100 µM | RXF 393 > 100 µM | HL-60 > 100 µM | A549 > 100 µM | HOP-62 > 100 µM | NCI-H226 > 100 µM | PC-3 > 100 µM | IGROV-1 > 100 µM | NCI/ADR-RES > 100 µM | MCF7 > 100 µM | SK-MEL-2 > 100 µM | UACC-62 > 100 µM | SF-268 > 100 µM | MDA-N > 100 µM

O=S(=O)(Oc1ccc2oc3ccccc3c2c1-c1c(OS(=O)(=O)C(F)(F)F)ccc2oc3ccccc3c12)C(F)(F)F
inactive: KM12 > 100 µM | OVCAR-5 > 100 µM | RXF 393 > 100 µM | HL-60 8.28 µM | BT-549 > 100 µM | A549 > 100 µM | HOP-62 > 100 µM | NCI-H226 > 100 µM | SNB-19 > 100 µM | PC-3 > 100 µM | IGROV-1 > 100 µM | NCI/ADR-RES > 100 µM | MCF7 > 100 µM | SK-MEL-2 > 100 µM | UACC-62 > 100 µM | SF-268 > 100 µM

O=C(O)CNC(=O)c1c2ccccc2nc2ccccc12
inactive: KM12 > 100 µM | SN12C > 100 µM | OVCAR-5 > 100 µM | BT-549 20.8 µM | A549 > 100 µM | HOP-62 > 100 µM | NCI-H226 > 100 µM | SNB-19 > 100 µM | PC-3 > 100 µM | IGROV-1 > 100 µM | NCI/ADR-RES > 100 µM | MCF7 > 100 µM | SNB-75 > 100 µM | SK-MEL-2 > 100 µM | UACC-62 > 100 µM | SF-268 > 100 µM

CCOC(=O)Cc1cc(=O)[nH]c(-n2[nH]c(C)c(CCO)c2=O)n1
inactive: KM12 > 100 µM | SN12C > 100 µM | OVCAR-5 > 100 µM | RXF 393 > 100 µM | HL-60 > 100 µM | A549 > 100 µM | HOP-62 > 100 µM | NCI-H226 > 100 µM | SNB-19 > 100 µM | PC-3 > 100 µM | IGROV-1 > 100 µM | NCI/ADR-RES > 100 µM | MCF7 > 100 µM | SK-MEL-2 > 100 µM | UACC-62 > 100 µM | SF-268 > 100 µM | MDA-N > 100 µM

CC(c1ccccc1)n1c2ccccc2c2c(N)ncnc21 (stereo not given)
inactive: OVCAR-5 18.2 µM | RXF 393 18.3 µM | HL-60 23.9 µM | A549 21.6 µM | HOP-62 17.5 µM | SNB-19 16.5 µM | PC-3 17.7 µM | IGROV-1 18.9 µM | NCI/ADR-RES 20.4 µM | MCF7 20.7 µM | SNB-75 1.4 µM | SK-MEL-2 23.7 µM | SF-268 21.1 µM | MDA-N 22.6 µM
